This is an account of results in patent publication US7056734B1, “Differentiation of non-insulin producing cells into insulin producing cells by GLP-1 or exendin-4 and uses thereof” (The United States of America as represented by the …, priority 1998, dated 2006).

The test system of series [1] is insulin mRNA. Briefly: Slot-blot quantitation of insulin mRNA in pancreata and islets. It counts as in vivo, rat. Conditions: young and old animals, 48 hrs infusion, P<0.01. The source says:
(§1) The rats were implanted with an Alzet micro-osmotic pump (Alza Corp., Palo Alto, Calif.) in the interscapular region for 48 hrs. […] Control animals received normal saline in their pumps and received their infusion for the same length of time.
(§2) After an overnight fast, animals were sacrificed, pancreata were removed and frozen in liquid nitrogen as quickly as possible. RNA was extracted by homogenization in guanidinium isothiocyanate, followed by ultracentrifugation on a 5.7 M cesium chloride cushion (Glisin et al., 1974; Chigwin et al., 1979). Poly-A RNA was then prepared from total RNA by affinity chromatography using oligo (dT) columns (Biolabs INC, Beverly, Mass.). RNA was quantified by spectrophotometric analysis at […]. Slot-blot analysis using poly-A RNA was used for quantitation of mRNA levels of glucokinase, which is the main glucose sensor of the beta cell (Matschinsky, 1990), the three hexokinases, GLUT2, the major glucose transporter of the beta cell (Mueckler, 1990), and insulin. Four micrograms of poly-A RNA were diluted in 50 μl TE buffer (Tris-HCL 10 mM, EDTA 1 mM, pH 7.4), 20 μl of 37% formaldehyde and 20 μl of 10× SSC. Samples were incubated at 60° C. for 15 min and then diluted with 1 ml of ice-cold 10× SSC (1×SCC=0.15 M NaCl+0.015 sodium citrate). […]

Series [2] has as its system GLUT2 mRNA. Description: Slot-blot quantitation of GLUT2 mRNA in pancreata and islets. The format is in vivo, rat.
Text: as §1, §2

For series [3], the system named is glucokinase mRNA. Briefly: Slot-blot quantitation of glucokinase mRNA in pancreata and islets. Conditions: young (P<0.05), much more so in old animals (P<0.001). It counts as in vivo, rat.
Text: as §1, §2

Series [4] can be described thus: Biological half-life. It counts as in vivo. Conditions: compared with several minutes for GLP-1.
Series [5] has as its system diabetic mice (C57BLKS/J-Lepr^db/Lepr^db). Description: Daily ip exendin-4 in diabetic mice. The format is in vivo, mouse. The source says: (§3) Animals. Four month old Wistar rats from the Wistar colony in the NIA (Baltimore, Md.) were used for the acute experiments of the effects of exendin-4 and GLP-1 (see Example 1). They had been maintained on standard lab chow and fed ad libitum. For the long-term experiments, diabetic mice (C57BLKS/J-Lepr^db/Lepr^db) lacking the leptin receptor, and their non-diabetic littermates were purchased at 4 weeks of age from Jackson Laboratories (Bar Harbor, Me.). They were housed two per cage and also were fed ad libitum. The same mice were caged together for the duration of the study. Wistar rats are caged on wire while the bedding for the mice was a paper based product, “Carefresh” (Absorption Co., Bellingham, Wash.).
(§4) Subsequently, whole blood glucose levels, taken from a retro-orbital sinus, were determined in the mice using a Glucometer Elite (Bayer). This regimen was continued for 12–13 weeks. […] Animals were weighed weekly. After one week of the regimen blood samples were again taken from a retro-orbital sinus for determination of insulin and glucose levels. At the end of the regimen, fasting blood samples were obtained for glucose and insulin levels and whole blood containing EDTA was assayed for hemoglobin A1c (Hb A1c) on the same day from the four groups.
(§5) Assays. Plasma glucose was measured by the glucose oxidase method (Wang et al., 1997). Insulin was measured by RIA as previously described (See Example 1). Hb A1c was assayed using a BIO-RAD (Herculas Calif.) DiaSTAT machine which uses low pressure cation exchange chromatography in conjunction with gradient elution to separate hemoglobin subtypes and variants from hemolyzed blood. The separated hemoglobin fractions were monitored by means of absorption of light at 415 nm.

Series [6] concerns non-diabetic mice. Briefly: Daily ip exendin-4 in non-diabetic littermates. The format is in vivo, mouse.
Text: as §3
as §4, with “Eleven diabetic and 10 non-diabetic animals received […] exendin-4 ip daily thereafter (7–9 am) while 10 diabetic and 10 non-diabetic animals received ip NaCl. Subsequently,” for “Subsequently,”
as §5

The subject of series [7] is diabetic mice. Briefly: Five-day daily ip exendin-4 in 14 weeks old diabetic mice. It counts as in vivo, mouse. The settings on record: 24 nmol/kg ip daily. As for the experimental part: In another group of eight diabetic mice 14 weeks old we gave 24 nmol/kg exendin-4 ip daily and NaCl ip daily for five days to four each of the group.
as §5

Series [8] deals with rat acinar cells. Conditions: Malhotra et al. 1992, cited from earlier work.

In the case of `CC[C@H](C)[C@H](NC(=O)[C@H](Cc1ccccc1)NC(=O)[C@H](CCC(=O)O)NC(=O)[C@H](CCCCN)NC(=O)[C@H](C)NC(=O)[C@H](C)NC(=O)[C@H](CCC(N)=O)NC(=O)CNC(=O)[C@H](CCC(=O)O)NC(=O)[C@H](CC(C)C)NC(=O)[C@H](Cc1ccc(O)cc1)NC(=O)[C@H](CO)NC(=O)[C@H](CO)NC(=O)[C@@H](NC(=O)[C@H](CC(=O)O)NC(=O)[C@H](CO)NC(=O)[C@@H](NC(=O)[C@H](Cc1ccccc1)NC(=O)[C@@H](NC(=O)CNC(=O)[C@H](CCC(=O)O)NC(=O)[C@H](C)NC(=O)[C@@H](N)Cc1c[nH]cn1)[C@@H](C)O)[C@@H](C)O)C(C)C)C(=O)N[C@@H](C)C(=O)N[C@@H](Cc1c[nH]c2ccccc12)C(=O)N[C@@H](CC(C)C)C(=O)N[C@H](C(=O)N[C@@H](CCCCN)C(=O)NCC(=O)N[C@@H](CCCNC(=N)N)C(N)=O)C(C)C` [GLP-1], the “insulin mRNA vs controls” value in series [1] was “increased”. Moreover, in series [2] (old animals (decreased by 70% vs young controls), P<0.001), the “effect on decreased GLUT-2 mRNA levels” value is recorded as “entirely reversed”. In series [2] (young animals), the “effect on GLUT2 mRNA levels” value was “did not significantly influence”. In addition, the “glucokinase mRNA levels” value in series [3] was “significantly increased”.
For the molecule exendin-4, in series [4], the half-life result was “on the order of hours”. Moreover, the “blood sugar lowering at lower concentration compared with larger amount” value in series [5] (1 nmol/kg ip for one week, diabetic mice) is “just as effective”. The “weight of the animal for the first 3–4 days of injection” value in series [5] (back to same as NaCl-treated by the seventh day) is given as “drops”. For the same molecule, in series [5] (diabetic mice, 9 weeks treatment), the “cage bedding 24 hours after changing vs NaCl-treated diabetic animals (urination)” value is reported as “obviously drier”. The molecule further displayed a fasting glucose levels in series [5] (diabetic mice, 12–13 weeks, NaCl 517±59, p<0.005) of 278.7 ± 30.0 mg/dL. Moreover, the fasting insulin levels in series [5] (diabetic mice, 12–13 weeks, NaCl 707.2±169.7, p<0.02) was 4,600±1,114 pmol/l. Besides, the “Hb A1c” value in series [5] (diabetic mice, daily ip for 12–13 weeks, NaCl-treated 8.8%, p<0.0001) is on record as 4.7%; in series [6] (12–13 weeks, p=0.0002) it was 3.5%. Further, the “fasting glucose level after one week of treatment” value turned out to be 90 ± 11 mg/dL in series [5] (diabetic mice, daily ip, NaCl-treated 238±51, p<0.002) and 70 ± 25 mg/dL in series [6] (NaCl-treated 135±5, p<0.05). In addition, the “deaths just after receiving exendin-4” value in series [5] (diabetic mice, day fourteen) is on record as “one of the diabetic mice died”; in series [6] (day eight) it was “two of the non-diabetic mice”. The “fasting insulin levels after one week vs NaCl” value in series [5] (diabetic mice, p<0.002) is recorded as “higher”. Further, in series [5] (diabetic mice, NaCl-treated 38.7 g), the “body weight at 13–14 weeks of treatment” value is listed as 46.7 g. In addition, the “effects of the daily injections on behavior” value in series [5] (long-term daily ip) is “no untoward effects”. In addition, in series [6] (12–13 weeks), the “trends in glucose and insulin” value is listed as “the same in the non-diabetic animals with exendin-4 treatment though not as dramatic”. Besides, in series [7] (NaCl-treated 640±37), the “blood sugars after five days” value was determined as 355 ± 21 mg/dL. In series [7] (NaCl-treated 1,072±54), the “insulin levels after five days” value is recorded as 6,904±705 pmol/l. For the same molecule, the total amylase released in series [8] (CCK alone vs 10^−8 M exendin-4 and CCK together) is 16%. The “concentration at which increased cAMP was seen” value in series [8] was 10^−8 M.
